The source of these data is article PMC7305236, “The atypical chemokine receptor ACKR3/CXCR7 is a broad-spectrum scavenger for opioid peptides” (Nature Communications, 2020).

What all share (design): dose or concentration left out as unconfirmed
Assay [1] addresses T1, CCR1 (Homo sapiens, UniProt P32246).
T1 construct: expressed in transfected cells
T1 sequence (P32246 1-355): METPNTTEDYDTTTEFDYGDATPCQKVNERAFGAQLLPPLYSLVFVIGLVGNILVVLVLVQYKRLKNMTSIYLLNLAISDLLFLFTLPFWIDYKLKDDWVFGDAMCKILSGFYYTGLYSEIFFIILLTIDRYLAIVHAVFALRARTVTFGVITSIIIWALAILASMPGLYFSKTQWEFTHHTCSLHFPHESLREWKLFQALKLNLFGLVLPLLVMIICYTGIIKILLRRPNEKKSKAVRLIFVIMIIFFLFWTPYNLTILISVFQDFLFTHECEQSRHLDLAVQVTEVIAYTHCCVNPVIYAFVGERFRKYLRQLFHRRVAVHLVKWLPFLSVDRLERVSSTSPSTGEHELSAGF
Kind of assay: Figure S2a opioid peptide screen on chemokine receptors. The class given is cell-based.

In assay [2] the target is T2, CCR6 (Homo sapiens, UniProt P51684).
T2 construct: expressed in transfected cells
T2 sequence (P51684 1-374): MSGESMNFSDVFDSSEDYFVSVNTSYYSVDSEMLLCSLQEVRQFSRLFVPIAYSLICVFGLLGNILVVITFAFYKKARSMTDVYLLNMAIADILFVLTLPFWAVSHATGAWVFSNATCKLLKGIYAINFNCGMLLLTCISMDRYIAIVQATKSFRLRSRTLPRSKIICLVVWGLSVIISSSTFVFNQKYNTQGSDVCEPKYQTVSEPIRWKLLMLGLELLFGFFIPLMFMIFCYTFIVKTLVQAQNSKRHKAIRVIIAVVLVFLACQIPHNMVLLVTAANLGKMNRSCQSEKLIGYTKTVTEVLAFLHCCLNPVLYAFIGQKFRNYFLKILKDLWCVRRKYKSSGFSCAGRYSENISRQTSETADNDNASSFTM
Described as above. The class given is cell-based.

Assay [3] has as its target T3, CCR9 (Homo sapiens, UniProt P51686).
T3 construct: expressed in transfected cells
T3 sequence (P51686 1-369): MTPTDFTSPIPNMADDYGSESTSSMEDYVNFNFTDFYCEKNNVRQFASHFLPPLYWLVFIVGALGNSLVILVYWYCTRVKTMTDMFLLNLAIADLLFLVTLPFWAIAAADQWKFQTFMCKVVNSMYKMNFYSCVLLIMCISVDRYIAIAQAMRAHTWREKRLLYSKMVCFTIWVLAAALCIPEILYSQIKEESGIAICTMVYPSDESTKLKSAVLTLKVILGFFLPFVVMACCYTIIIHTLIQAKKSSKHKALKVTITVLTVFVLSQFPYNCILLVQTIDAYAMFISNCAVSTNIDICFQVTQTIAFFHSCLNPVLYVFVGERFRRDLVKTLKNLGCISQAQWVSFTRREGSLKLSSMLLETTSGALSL
Described as above. The class given is cell-based.

Assay [4] has as its target T4, CXCR1 (Homo sapiens, UniProt P25024).
T4 construct: expressed in transfected cells
T4 sequence (P25024 1-350): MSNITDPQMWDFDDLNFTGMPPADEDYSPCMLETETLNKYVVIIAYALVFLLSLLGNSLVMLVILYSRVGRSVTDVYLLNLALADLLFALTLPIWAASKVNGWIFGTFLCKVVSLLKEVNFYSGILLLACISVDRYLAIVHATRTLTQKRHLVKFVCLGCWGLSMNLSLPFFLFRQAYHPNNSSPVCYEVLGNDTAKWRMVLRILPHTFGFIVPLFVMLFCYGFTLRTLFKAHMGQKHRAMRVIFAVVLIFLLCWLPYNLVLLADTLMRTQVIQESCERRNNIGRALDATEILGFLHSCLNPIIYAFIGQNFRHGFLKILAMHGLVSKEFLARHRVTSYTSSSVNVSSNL
The description is as above. The class given is cell-based.

The target in assay [5] is ACKR3 (Homo sapiens, UniProt P25106). Kind of assay: cell-based. Particulars: read-out: ACKR3 activity, ctrl+ = 100, Figure S2a.
Assay [6] has as its target CCR8 (Homo sapiens, UniProt P51685). Kind of assay: Figure S2a opioid peptide screen on chemokine receptors. The settings on record: read-out: CCR8 activity, ctrl+ = 100, Figure S2a.
Setting [7] is: replicate 1, read-out: CCR1 activity, ctrl+ = 100.
Setting [8] is: replicate 2, read-out: CCR1 activity, ctrl+ = 100.
[9] abbreviates: replicate 3, read-out: CCR1 activity, ctrl+ = 100.
[10] abbreviates: replicate 1, read-out: CCR6 activity, ctrl+ = 100.
Where [11] appears, read: replicate 2, read-out: CCR6 activity, ctrl+ = 100.
Setting [12] is: replicate 3, read-out: CCR6 activity, ctrl+ = 100.
The mark [13] stands for this setting: replicate 1, read-out: CCR9 activity, ctrl+ = 100.
Setting [14] is: replicate 2, read-out: CCR9 activity, ctrl+ = 100.
Setting [15] is: replicate 3, read-out: CCR9 activity, ctrl+ = 100.
The mark [16] stands for this setting: replicate 1, read-out: CXCR1 activity, ctrl+ = 100.
[17] abbreviates: replicate 2, read-out: CXCR1 activity, ctrl+ = 100.
Where [18] appears, read: replicate 3, read-out: CXCR1 activity, ctrl+ = 100.

Like-named read-outs stand apart in the source and are kept apart here. Starred links: 1 amine or outer side, 2 acyl side, 3 side chain; linkers in the order of their positions; H or OH if unused. Non-standard residues stand in square brackets, D forms with d. Residues, ends and D or L forms follow the SMILES beside them. X1 = N[C@@H](Cc1ccccc1)CN(CC(=O)[*:2])[*:1]

CCR8, sequence (P51685 whole entry): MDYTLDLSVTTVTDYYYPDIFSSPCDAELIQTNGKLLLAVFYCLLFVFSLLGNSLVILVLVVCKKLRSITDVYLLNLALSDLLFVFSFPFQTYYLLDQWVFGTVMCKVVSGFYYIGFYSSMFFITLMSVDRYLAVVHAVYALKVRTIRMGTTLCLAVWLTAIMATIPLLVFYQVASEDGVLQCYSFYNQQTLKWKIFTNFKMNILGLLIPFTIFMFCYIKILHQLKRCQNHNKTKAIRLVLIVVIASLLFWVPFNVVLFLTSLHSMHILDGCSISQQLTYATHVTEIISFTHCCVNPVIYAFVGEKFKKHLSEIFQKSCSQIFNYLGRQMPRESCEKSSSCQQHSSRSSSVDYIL
ACKR3, sequence (P25106 whole entry): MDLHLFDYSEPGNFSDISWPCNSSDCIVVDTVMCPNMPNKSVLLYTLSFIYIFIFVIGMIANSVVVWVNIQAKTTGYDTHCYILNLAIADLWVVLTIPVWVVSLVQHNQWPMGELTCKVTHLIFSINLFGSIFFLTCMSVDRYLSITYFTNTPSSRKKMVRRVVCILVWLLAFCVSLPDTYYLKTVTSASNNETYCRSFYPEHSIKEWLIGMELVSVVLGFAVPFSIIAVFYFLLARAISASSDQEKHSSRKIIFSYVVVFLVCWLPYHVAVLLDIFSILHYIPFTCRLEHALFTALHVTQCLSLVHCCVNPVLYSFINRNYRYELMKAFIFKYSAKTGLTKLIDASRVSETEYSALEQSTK

With `CC[C@H](C)[C@H](NC(=O)[C@H](CCCNC(=N)N)NC(=O)[C@H](CCCNC(=N)N)NC(=O)[C@H](CC(C)C)NC(=O)[C@H](Cc1ccccc1)NC(=O)CNC(=O)CNC(=O)[C@@H](N)Cc1ccc(O)cc1)C(=O)N[C@@H](CCCNC(=N)N)C(=O)N1CCC[C@H]1C(=O)N[C@@H](CCCCN)C(=O)N[C@@H](CC(C)C)C(=O)N[C@@H](CCCCN)C(=O)N[C@@H](Cc1c[nH]c2ccccc12)C(=O)N[C@@H](CC(=O)O)C(=O)N[C@@H](CC(N)=O)C(=O)N[C@@H](CCC(N)=O)C(=O)O` [Dynorphin A], the activation in assay [1] (setting [7]) is -16.7%; in assay [1] (setting [8]), 4.28%; in assay [1] (setting [9]) it was 6.56%; in assay [2] (setting [10]), -2.27%; in assay [2] (setting [11]), -1.32%; in assay [2] (setting [12]) it was -4.07%. Also, the activation in assay [3] (setting [13]) is 0.116%; in assay [3] (setting [14]) it was -0.279%; in assay [3] (setting [15]) it was 10.9%; in assay [4] (setting [16]), 0.562%; in assay [4] (setting [17]), 0.211%; in assay [4] (setting [18]), 0.227%. Moreover, the activation in assay [5] (replicate 1) was 127%; in assay [5] (replicate 2), 60.7%; in assay [5] (replicate 3), 99%; in assay [6] (replicate 1) it was -0.0612%; in assay [6] (replicate 2), -35.8%; in assay [6] (replicate 3) it was -0.797%.
`C[C@H](NC(=O)CNC(=O)[C@@H](NC(=O)[C@H](Cc1ccccc1)NC(=O)CNC(=O)CNC(=O)[C@@H](N)Cc1ccccc1)[C@@H](C)O)C(=O)N[C@@H](CCCNC(=N)N)C(=O)N[C@@H](CCCCN)C(=O)N[C@@H](CO)C(=O)N[C@@H](C)C(=O)N[C@@H](CCCNC(=N)N)C(=O)N[C@@H](CCCCN)C(N)=O` [Nociceptin 1-13]: the activation in assay [1] (setting [7]) is -0.621%; in assay [1] (setting [8]), 1.74%; in assay [1] (setting [9]) it was -35.9%; in assay [2] (setting [10]), 0.552%; in assay [2] (setting [11]), -0.975%; in assay [2] (setting [12]), -0.351%. Further, the activation in assay [3] (setting [13]) was -3.6%; in assay [3] (setting [14]), -1.89%; in assay [3] (setting [15]), 2.5%; in assay [4] (setting [16]) it was 0.237%; in assay [4] (setting [17]), 1.23%; in assay [4] (setting [18]), -0.725%. For the same compound, the activation in assay [5] (replicate 1) is 19.7%; in assay [5] (replicate 2), 20.3%; in assay [5] (replicate 3), 51.3%; in assay [6] (replicate 1) it was -35.6%; in assay [6] (replicate 2), -2.22%; in assay [6] (replicate 3) it was 6.11%.
Consider `C[C@H](NC(=O)CNC(=O)[C@@H](NC(=O)[C@H](Cc1ccccc1)NC(=O)CNC(=O)CNC[C@@H](N)Cc1ccccc1)[C@@H](C)O)C(=O)N[C@@H](CCCNC(=N)N)C(=O)N[C@@H](CCCCN)C(=O)N[C@@H](CO)C(=O)N[C@@H](C)C(=O)N[C@@H](CCCNC(=N)N)C(=O)N[C@@H](CCCCN)C(N)=O` [FG Nociceptin 1-13] (H-[X1]GFTGARKSARK-NH2), for which the activation was 5.65% in assay [1] (setting [7]); -10.1% in assay [1] (setting [8]); -16.6% in assay [1] (setting [9]); 0.145% in assay [2] (setting [10]); -0.683% in assay [2] (setting [11]); 5.07% in assay [2] (setting [12]). The activation in assay [3] (setting [13]) was -2.13%; in assay [3] (setting [14]), 0.443%; in assay [3] (setting [15]) it was 0.538%; in assay [4] (setting [16]), -0.231%; in assay [4] (setting [17]), 1.41%; in assay [4] (setting [18]), 1.07%. Besides, the activation in assay [5] (replicate 1) is 61.5%; in assay [5] (replicate 2), 58.4%; in assay [5] (replicate 3), 66%; in assay [6] (replicate 1) it was -24.5%; in assay [6] (replicate 2), 3.75%; in assay [6] (replicate 3), 4.53%.
